{"source": "patent US6489362B1", "about": "“Carnitine supplemented diet to prevent or alleviate ascites in broiler type poultry” (The Board of Regents for Oklahoma State University, priority 1999, dated 2002)", "key": {"[1]": {"test_system": "growing broilers", "conditions": "cited from earlier work"}, "[2]": {"test_system": "broilers", "experiment": "Further examples: hematocrit of broilers fed carnitine supplemented diets", "format": "in vivo, broiler type chickens", "conditions": "for Hematocrit HCT: control 0: 33.40", "method": "Materials and Methods: Male Cobb-500 broiler chicks (obtained from Cobb Vantress of Siloam Springs, Ark.) were used. The chicks were divided into 24 groups of […] chicks and randomly assigned to 60 open circuit respiratory chambers in three separate rooms. The chambers were housed in 3 thermostatically controlled rooms with 24 hour fluorescent light. […]\n(§1) Feed and drinking water were provided for ad-libitum consumption. Chamber temperature was maintained at 30° C. the first 5 days of age and at 27.8° C. thereafter. Chambers were checked twice daily for bird mortality. Body weights of each chick were obtained on day 0, 7 and 14. Feed consumption was determined on a chamber basis at the end of 1 and 2 weeks and feed efficiency calculated. Oxygen consumption and CO2 production was recorded continuously on all chambers. Five birds at the start of the experiment were sacrificed for determination of initial composition. At the end of the experiment (Week 2) blood samples were taken from the wing vain of all birds for hematocrit determination. Heart weight and right ventricular mass of each bird were measured and the carcass saved for determination of lean and fat tissue gain using a Hologic densitometer."}, "[3]": {"test_system": "Male Cobb-500 broiler chicks", "experiment": "Carnitine supplemented basal diets fed to broiler chicks in respiratory chambers to 14 days of age", "format": "in vivo, broiler type chickens", "conditions": "carnitine 200 ppm in basal diet; for Right ventricular weight (RV) / Ascites heart ratio (AHR), ratio of right ventricular mass to heart weight: 14 days of age; for Right ventricular weight (RV): control 0 ppm 0.21 ± 0.005; for Ascites heart ratio (AHR), ratio of right ventricular mass to heart weight: control 0 ppm 11.45 ± 0.24; for Hematocrit HCT: blood at week 2, control 0 ppm 36.11 ± 0.26", "method": "Materials and Methods: Male Cobb-500 broiler chicks (obtained from Cobb Vantress of Siloam Springs, Ark.) were used. The chicks were divided into 24 groups of […] chicks and randomly assigned to 60 open circuit respiratory chambers in three separate rooms. The chambers were housed in 3 thermostatically controlled rooms with 24 hour fluorescent light. Two levels of carnitine (0,200 ppm) were added to the basal diets (Table 1) and examined at two oxygen levels (17 and 20.6%).\nas §1\nBreathing Air Supply and Analysis: Compressed dried air (7% relative humidity (RH), 20.6% O2) was delivered to chicks in the chamber via polyethylene tubes. It was necessary to provide low RH air to the chick chamber in order to hold the chamber at RH below 75%. The concentration of O2 and CO2 in air exiting each bird's chamber was monitored each day using Ametek oxygen (accuracy±0.02%) and carbon dioxide (accuracy±.03%) analyzers, respectively.\nStatistical Analysis: Data were analyzed using the General Linear Model procedure of SAS (SAS, 1985). When a significant F statistic was noted by ANOVA, treatment means were compared using least square analysis variance."}}, "data": [{"compound": "C[N+](C)(C)CC(O)CC(=O)[O-]", "note": "(stereo not drawn) [Carnitine, 3-hydroxy-4-N-trimethylaminobutyric acid]", "values": [{"measurement": "Effect on feed intake, body and abdominal fat weight, carcass or liver lipid levels", "setting": "[1]; carnitine in poultry diet, growing broilers (Cartwright 1986)", "result": "no beneficial effect"}, {"measurement": "Ethanol metabolism in broilers", "setting": "[1]; dietary carnitine (Smith et al. 1992)", "result": "retard ethanol metabolism"}, {"measurement": "Hatchability of eggs", "setting": "[1]; dietary carnitine (U.S. Pat. No. 5,362,753)", "result": "increase the hatchability of eggs"}, {"measurement": "Hematocrit HCT", "setting": "[2]; carnitine level 12.5 (ppm) in diet", "result": 32.11, "unit": "%"}, {"measurement": "Hematocrit HCT", "setting": "[2]; carnitine level 50 (ppm) in diet", "result": 31.99, "unit": "%"}, {"measurement": "Hematocrit HCT", "setting": "[2]; carnitine level 100 (ppm) in diet", "result": 30.60, "unit": "%"}, {"measurement": "Hematocrit values, change versus unsupplemented diet", "setting": "[2]; diets at 12.5, 50 and 100 ppm carnitine", "result": "beneficial and significant lowering"}, {"measurement": "Right ventricular weight (RV)", "setting": "[3]", "result": "0.20 ± 0.006", "unit": "g"}, {"measurement": "Right ventricular weight (RV)", "setting": "[3]; listed as carnitine", "result": "significantly decreased"}, {"measurement": "Ascites heart ratio (AHR), ratio of right ventricular mass to heart weight", "setting": "[3]", "result": "10.57 ± 0.26", "unit": "%"}, {"measurement": "Ascites heart ratio (AHR), ratio of right ventricular mass to heart weight", "setting": "[3]; listed as carnitine", "result": "significantly decreased"}, {"measurement": "Hematocrit HCT", "setting": "[3]", "result": "35.41 ± 0.24", "unit": "%"}, {"measurement": "Hematocrit HCT", "setting": "[3]; listed as carnitine", "result": "significantly decreased"}, {"measurement": "Body weight gain (Gain)", "setting": "[3]; broilers to 14 days of age", "result": "265 ± 3.1", "unit": "g/b"}, {"measurement": "Gain:feed ratio", "setting": "[3]; broilers to 14 days of age", "result": "0.76 ± 0.0"}]}]}
